Literature values, collected in US20180344749A1, “CONTROLLED RELEASE FORMULATIONS OF SALICLATE-RELEASING ACTIVES” (Cogwellin, LLC, priority 2015, published 2018).

Key:
[1] = molecular target: acetyltransferase p300 (Homo sapiens, UniProt Q09472); details: for tau levels: enhance tau turnover
[2] = test system: PS19 transgenic mouse model of FTD; details: administration after disease onset
[3] = in terms of salicylic acid equivalents
[4] = at anti-inflammatory doses
[5] = not given; remark: listed apart in the source
[6] = test system: tau acetylation; details: aspirin rapidly loses its acetyl group

acetyltransferase p300, sequence (Q09472 whole entry): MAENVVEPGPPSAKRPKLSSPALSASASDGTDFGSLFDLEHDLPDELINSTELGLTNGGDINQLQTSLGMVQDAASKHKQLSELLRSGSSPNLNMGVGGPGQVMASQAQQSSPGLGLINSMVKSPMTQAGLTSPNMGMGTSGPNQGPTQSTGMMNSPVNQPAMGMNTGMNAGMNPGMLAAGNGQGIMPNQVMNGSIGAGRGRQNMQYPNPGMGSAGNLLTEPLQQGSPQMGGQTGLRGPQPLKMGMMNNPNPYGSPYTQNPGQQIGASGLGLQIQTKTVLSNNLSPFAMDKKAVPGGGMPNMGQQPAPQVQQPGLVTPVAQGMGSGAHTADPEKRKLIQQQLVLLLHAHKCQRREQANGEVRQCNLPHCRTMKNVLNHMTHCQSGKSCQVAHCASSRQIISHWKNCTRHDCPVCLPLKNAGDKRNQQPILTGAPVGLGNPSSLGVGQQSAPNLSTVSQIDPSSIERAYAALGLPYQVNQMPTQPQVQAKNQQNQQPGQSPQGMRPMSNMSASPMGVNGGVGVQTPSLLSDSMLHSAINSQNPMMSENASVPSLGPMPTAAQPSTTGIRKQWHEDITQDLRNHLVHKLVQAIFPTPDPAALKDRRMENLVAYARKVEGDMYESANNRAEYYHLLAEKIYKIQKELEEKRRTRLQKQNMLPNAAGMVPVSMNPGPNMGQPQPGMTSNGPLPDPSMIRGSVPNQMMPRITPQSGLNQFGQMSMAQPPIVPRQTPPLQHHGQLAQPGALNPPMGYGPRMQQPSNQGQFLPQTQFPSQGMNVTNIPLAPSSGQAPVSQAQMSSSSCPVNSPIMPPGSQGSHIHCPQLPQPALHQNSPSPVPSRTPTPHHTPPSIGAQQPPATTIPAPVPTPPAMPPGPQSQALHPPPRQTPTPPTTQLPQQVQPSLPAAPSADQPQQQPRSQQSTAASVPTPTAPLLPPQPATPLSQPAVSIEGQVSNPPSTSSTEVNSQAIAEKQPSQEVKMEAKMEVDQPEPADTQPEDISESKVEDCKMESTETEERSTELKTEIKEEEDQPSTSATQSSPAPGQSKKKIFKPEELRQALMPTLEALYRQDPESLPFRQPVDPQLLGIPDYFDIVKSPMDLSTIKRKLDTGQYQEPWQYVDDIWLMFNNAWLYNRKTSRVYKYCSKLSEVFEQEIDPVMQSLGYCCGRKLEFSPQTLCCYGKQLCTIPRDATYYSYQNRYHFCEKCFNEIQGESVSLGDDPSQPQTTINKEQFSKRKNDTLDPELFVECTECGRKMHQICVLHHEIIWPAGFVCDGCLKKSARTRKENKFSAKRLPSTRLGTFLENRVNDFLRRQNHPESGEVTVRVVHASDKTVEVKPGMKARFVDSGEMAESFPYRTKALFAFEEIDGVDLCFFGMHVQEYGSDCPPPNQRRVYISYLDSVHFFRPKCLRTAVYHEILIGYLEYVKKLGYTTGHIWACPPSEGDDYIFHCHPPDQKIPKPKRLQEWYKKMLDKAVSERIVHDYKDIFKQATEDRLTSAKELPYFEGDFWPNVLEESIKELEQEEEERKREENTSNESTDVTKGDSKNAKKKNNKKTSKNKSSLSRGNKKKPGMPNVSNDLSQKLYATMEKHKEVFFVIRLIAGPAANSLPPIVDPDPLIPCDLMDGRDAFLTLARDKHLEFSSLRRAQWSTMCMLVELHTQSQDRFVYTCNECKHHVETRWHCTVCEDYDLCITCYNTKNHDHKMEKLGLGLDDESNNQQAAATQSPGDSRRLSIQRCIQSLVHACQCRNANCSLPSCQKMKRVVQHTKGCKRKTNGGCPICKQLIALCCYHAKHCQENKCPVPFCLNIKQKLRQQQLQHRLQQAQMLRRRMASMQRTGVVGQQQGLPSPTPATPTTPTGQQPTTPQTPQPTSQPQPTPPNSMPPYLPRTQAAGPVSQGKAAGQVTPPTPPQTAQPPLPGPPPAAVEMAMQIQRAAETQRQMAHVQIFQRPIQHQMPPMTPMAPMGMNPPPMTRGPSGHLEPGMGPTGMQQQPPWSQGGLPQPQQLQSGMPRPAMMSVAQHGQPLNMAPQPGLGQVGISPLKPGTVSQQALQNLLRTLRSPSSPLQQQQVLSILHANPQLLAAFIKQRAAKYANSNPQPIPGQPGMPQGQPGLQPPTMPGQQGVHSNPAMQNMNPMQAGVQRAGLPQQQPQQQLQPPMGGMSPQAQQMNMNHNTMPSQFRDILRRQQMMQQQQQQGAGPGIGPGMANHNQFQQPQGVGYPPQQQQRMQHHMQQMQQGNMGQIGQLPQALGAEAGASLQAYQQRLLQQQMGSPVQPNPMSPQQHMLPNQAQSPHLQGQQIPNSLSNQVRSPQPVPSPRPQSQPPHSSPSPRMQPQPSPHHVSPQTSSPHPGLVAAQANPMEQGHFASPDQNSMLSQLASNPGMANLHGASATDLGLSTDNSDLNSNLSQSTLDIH

SMILES | acetyltransferase p300-induced tau acetylation [1] | tau levels [1] | hippocampal atrophy [2] | levels of total tau and tau acetylated at K174 [2] | p300 activity [2] | tau-induced memory deficits [2] | brain penetration (in vivo) | stability of salicylate levels after salsalate (over 8 hours) | salicylic acid obtained relative to an equivalent dose of aspirin (relative AUC) [3] | gastrointestinal bleeding and gastric erosions compared with aspirin [4] | solubility in the pH of the small intestine ([5]; small intestine pH) | behaviour in the pH of the stomach [5] | tau acetylation in cell cultures [6]
O=C(Oc1ccccc1C(=O)O)c1ccccc1O [salsalate] | inhibited | reduce tau levels | prevented | lowered | inhibited p300 activity | rescued | penetrates the brain | relatively stable salicylate levels over 8 hours | approximately 84% | significantly less | soluble | undergoes particulate dispersion | –
O=C(O)c1ccccc1O [salicylate, salicylic acid] | inhibited | reduce tau levels | – | – | – | – | – | – | – | – | – | – | –
CC(=O)Oc1ccccc1C(=O)O [aspirin, acetylsalicylic acid] | – | – | – | – | – | – | – | – | – | – | – | soluble | boost tau acetylation
